# According to ChEMBL document CHEMBL4196112, “Design of Selective sPLA2-X Inhibitor (-)-2-{2-[Carbamoyl-6-(trifluoromethoxy)-1H-indol-1-yl]pyridine-2-yl}propanoic Acid” (ACS Med Chem Lett, 2018):
# Activity calls are given as the source filed them. The calls are words filed in the database; no cut-off is given here.
# Assays:
# [1] = biological target: T1, Group 10 secretory phospholipase A2 (Homo sapiens, UniProt O15496); assay: Inhibition of sPLA2-10 (unknown origin) using 1-palmitoyl-2-oleoyl-sn-glycero-3-phosphocholine as substrate pretreated for 20 mins followed by substrate addition and measured after 60 mins by NEFA based assay
# T1 sequence (O15496 whole entry): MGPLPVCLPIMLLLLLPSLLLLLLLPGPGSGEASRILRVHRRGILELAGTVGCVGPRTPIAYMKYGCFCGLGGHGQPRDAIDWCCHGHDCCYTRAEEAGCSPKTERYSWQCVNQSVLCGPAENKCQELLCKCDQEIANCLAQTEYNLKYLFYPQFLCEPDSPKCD
# [2] = biological target: T2, Phospholipase A2, membrane associated (Homo sapiens, UniProt P14555); assay: Inhibition of sPLA2-2A (unknown origin) using 1-palmitoyl-2-oleoyl-sn-glycero-3-phosphocholine as substrate pretreated for 20 mins followed by substrate addition and measured after 60 mins by NEFA based assay
# T2 sequence (P14555 whole entry): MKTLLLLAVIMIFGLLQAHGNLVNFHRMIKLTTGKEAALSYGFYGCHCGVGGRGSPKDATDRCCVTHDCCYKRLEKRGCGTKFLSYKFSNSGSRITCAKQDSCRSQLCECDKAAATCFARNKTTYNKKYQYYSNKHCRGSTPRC
# [3] = biological target: T3, Phospholipase A2 group V (Homo sapiens, UniProt P39877); assay: Inhibition of sPLA2-5 (unknown origin) using 1-palmitoyl-2-oleoyl-sn-glycero-3-phosphocholine as substrate pretreated for 20 mins followed by substrate addition and measured after 60 mins by NEFA based assay
# T3 sequence (P39877 whole entry): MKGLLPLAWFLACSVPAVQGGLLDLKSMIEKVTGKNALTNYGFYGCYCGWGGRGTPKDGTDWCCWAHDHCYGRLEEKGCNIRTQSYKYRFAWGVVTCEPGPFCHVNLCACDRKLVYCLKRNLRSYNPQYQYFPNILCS
# [4] = biological target: T1, Group 10 secretory phospholipase A2; assay: Inhibition of recombinant human sPLA2-10 using human HDL as substrate pretreated for 20 mins followed by substrate addition and measured after 60 mins by NEFA based assay
# [5] = Lipophilicity, log D of compound at pH 7.4; settings: buffer
# [6] = organism: Homo sapiens; assay: Selectivity ratio of IC50 for sPLA2-2A (unknown origin) to IC50 for sPLA2-10 (unknown origin)
# [7] = organism: Homo sapiens; assay: Selectivity ratio of IC50 for sPLA2-5 (unknown origin) to IC50 for sPLA2-10 (unknown origin)
# [8] = system: Mus musculus; assay: Unbound clearance in C57Bl/6J mouse administered iv or po; type: ADME, organism-based; settings: in vivo
# [9] = biological target: Phospholipase A2, membrane associated (Homo sapiens) (UniProt P14555); assay: Inhibition of sPLA2-2A (unknown origin) at 10 uM using 1-palmitoyl-2-oleoyl-sn-glycero-3-phosphocholine as substrate pretreated for 20 mins followed by substrate addition and measured after 60 mins by NEFA based assay
# [10] = biological target: T4, Phospholipase A2 group V (Homo sapiens) (UniProt P39877); assay: Inhibition of sPLA2-5 (unknown origin) at 10 uM using 1-palmitoyl-2-oleoyl-sn-glycero-3-phosphocholine as substrate pretreated for 20 mins followed by substrate addition and measured after 60 mins by NEFA based assay
# T4 sequence (whole entry): T3 sequence (P39877 whole entry)
Structure (SMILES),IC50 [1] [nM],IC50 [2] [nM],IC50 [3] [nM],IC50 [4] [nM],logD [5],Ratio IC50 [6],Ratio IC50 [7],CL free [8] [mL/min/kg],inhibition [9],inhibition [10]
C[C@@H](CC(=O)O)c1cccc(-n2c(C(N)=O)cc3ccc(OC(F)(F)F)cc32)c1,15,820,5100,110,1.3,60,360,1025,–,–
NC(=O)c1cc2ccc(OC(F)(F)F)cc2n1-c1ccc(=O)n(CCC(=O)O)c1,4800,–,–,–,–,–,–,–,inactive,inactive
